Patent US11696937B2, “Glycopeptide compounds having activity of resisting drug-resistant bacteria, and preparation method and application thereof” (priority 2018, dated 2023)
Values after ≈ are worked out from the molar mass of the structure shown.

What was measured:
wild AB zebrafish = assay: Zebrafish toxicity test; format: in vivo; conditions: intravenous injection, 72 hours of treatment, samples in phosphate form
Experimental: A zebrafish toxicity test of the compounds in Table 1 is also tested. Randomly select wild AB zebrafish in a six-well plate, and inject each test sample at a dose of 50, 100, 150, 200, and 250 ng/tail intravenously. At the same time, a normal control group and a solvent control group (aqueous phosphoric acid) are set; During this experiment, the death of zebrafish is observed and recorded every day and the dead fish are removed. After 72 hours of treatment, the death of zebrafish is counted. Calculate the LD50 of each test product to zebrafish.
All samples are tested for zebrafish toxicity in phosphate form.

[1] = test system: Clinical isolates 07-W3-45 (VRE); assay: In vitro antibacterial activity (MIC) against VRE; format: cell-based, Vancomycin-resistant Enterococcus
Experimental: (§1) An antibacterial activity of the compounds in Table 1 is determined in vitro, and a minimum inhibitory concentration (MIC) is read. The determination method refers to the method of the Pharmacopoeia of the People's Republic of China (2015 edition). The MRSA detection strain is purchased from ATCC, and the VRE detection strain is from the clinically isolated drug-resistant strain 07-W3-45 from Shanghai Huashan Hospital. Known antibiotic oritavancin (phosphate) is used for a reference drug.

ATCC43300 (MRSA) = assay: In vitro antibacterial activity (MIC) against MRSA; format: cell-based, Methicillin-resistant Staphylococcus aureus
Experimental: as §1

Row | Compound | Zebrafish LD50 (wild AB zebrafish) [ng/tail] | MIC Clinical isolates 07-W3-45 (VRE) ([1]; clinically isolated drug-resistant strain 07-W3-45 from Shanghai Huashan Hospital) [µg/mL] | MIC ATCC43300 (MRSA) (ATCC43300 (MRSA); MRSA strain ATCC43300, method of Pharmacopoeia of the People's Republic of China (2015 edition)) [µg/mL] | MIC ([1]; Enterococcus, VRE, read-out: MIC Clinical isolates 07-W3-45 (VRE)) [µg/mL] | MIC (ATCC43300 (MRSA); Staphylococcus aureus, read-out: MIC ATCC43300 (MRSA)) [µg/mL]
1 | CNC(CC(C)C)C(=O)NC1C(=O)NC(CC(N)=O)C(=O)NC2C(=O)NC3C(=O)NC(C(=O)NC(C(=O)O)c4cc(O)cc(O)c4-c4cc3ccc4O)C(OC3CC(C)(N)C(O)C(C)O3)c3ccc(c(Cl)c3)Oc3cc2cc(c3OC2OC(CO)C(O)C(O)C2OC2CC(C)(NCc3ccc(NCCCc4ccc(Cl)cc4)cc3)C(O)C(C)O2)Oc2ccc(cc2Cl)C1O (stereo not drawn) [Compound 25] | 97 | 0.25 (≈ 0.135 µM) | 0.064 (≈ 0.0346 µM) |  | 
2 | CN[C@H](CC(C)C)C(=O)N[C@H]1C(=O)N[C@@H](CC(N)=O)C(=O)N[C@H]2C(=O)N[C@H]3C(=O)N[C@H](C(=O)N[C@H](C(=O)O)c4cc(O)cc(O)c4-c4cc3ccc4O)[C@H](O[C@H]3C[C@](C)(N)[C@@H](O)[C@H](C)O3)c3ccc(c(Cl)c3)Oc3cc2cc(c3O[C@@H]2O[C@H](CO)[C@@H](O)[C@H](O)[C@H]2O[C@H]2C[C@](C)(NCc3ccc(-c4ccc(Cl)cc4)cc3)[C@@H](O)[C@H](C)O2)Oc2ccc(cc2Cl)[C@H]1O [Orivancin, oritavancin, reference compound] | 89.4 |  |  | 2 (≈ 1.12 µM) | 0.5 (≈ 0.279 µM)
